Test results from PMC9788418, “Design, Synthesis and Biological Evaluation of Syn and Anti-like Double Warhead Quinolinones Bearing Dihydroxy Naphthalene Moiety as Epidermal Growth Factor Receptor Inhibitors with Potential Apoptotic Antiproliferative Action” (Molecules, 2022).
Several values for one entry are separate records, joined by “and”; a condition that tells them apart may be missing. Equal values may be shown once.

Assays:
[1] = tested on: A-549 (epithelial cancer cell line); test: Antiproliferative assay; assay type: cell-based, human; conditions: Homo sapiens, A549; read-out: Antiproliferative Activity IC50 ± SEM, A-549
Description: (§1) 4.2.1.2. Assay for antiproliferative effect
(§2) To explore the antiproliferative potential of compounds MTT assay was performed according to previously reported procedure using different cell lines to explore the antiproliferative potential of compounds propidium iodide fluorescence assay was performed using different cell lines. To calculate the total nuclear DNA, a fluorescent dye (propidium iodide, PI) is used which can attach to the DNA, thus offering a quick and precise technique. PI cannot pass through the cell membrane and its signal intensity can be considered as directly proportional to quantity of cellular DNA. Cells whose cell membranes are damaged or have changed permeability are counted as dead ones. The assay was performed by seeding the cells of different cell lines at a density of 3000-7500 cells/well (in 200µl […]
(§3) atmospheric conditions. The medium was removed; the compounds were added to the plates at 10 µM concentrations (in 0.1% DMSO) in triplicates, followed by incubation for 48 h. DMSO (0.1%) was used as control. After incubation, medium was removed followed by the addition of PI (25 µl, 50µg/mL in water/medium) to each well of the plates. At -80 °C, the plates were allowed to freeze for 24 h, followed by thawing at 25 °C. A fluorometer (Polar-Star BMG Tech) was used to record the readings at excitation and emission wavelengths of 530 and 620 nm for each well. The percentage cytotoxicity of compounds was calculated using the following formula:
(§4) Where ATC= Absorbance of treated cells and AC= Absorbance of control. […]
(§5) positive control in the assay.

[2] = tested on: HT-29 (colon cancer cell line); test: Antiproliferative assay; assay type: cell-based, human; conditions: Homo sapiens, read-out: Antiproliferative Activity IC50 ± SEM, HT-29
Description: as §1, §2, §3, §4, §5

[3] = tested on: MCF-7 (breast cancer cell line); test: Antiproliferative assay; assay type: cell-based, human; conditions: Homo sapiens, MCF7; read-out: Antiproliferative Activity IC50 ± SEM, MCF-7
Description: as §1, §2, §3, §4, §5

[4] = tested on: four tested cancer cell lines (A-549, MCF-7, Panc-1, HT-29); test: Antiproliferative assay, average over the four cell lines; assay type: cell-based, human; conditions: for GI50: Homo sapiens, mean of the four cancer cell lines
Description: The newly synthesized compounds were tested for antiproliferative activity against four different types of cancer cells: A-549 (epithelial cancer cell line), MCF-7 (breast cancer cell line), Panc-1 (pancreas cancer cell line), and HT-29 (colon cancer cell line).
After 24 h, medium was removed from the plates and the compounds in (in 0.1% DMSO) were added (in 200 μL medium to yield a final concentration of 0.1% v/v) to the wells of plates. A single compound was designated with four wells followed by incubation of plates for 96h at 37°C. After incubation, medium was removed completely from the plates followed by addition of MTT (0.4 mg/mL in medium) to each well and subsequent incubation of plates for 3h. MTT (along with the medium) was removed and DMSO (150μL) was added to each well of the culture plates, followed by vortexing and subsequent measurement of absorbance (at 540 nm) using microplate reader. The data are shown as percentage inhibition of proliferation in comparison with controls containing 0.1% 4.2.1.2. Assay for antiproliferative effect
To explore the antiproliferative potential of compounds MTT assay was performed according to previously reported procedure using different cell lines to explore the antiproliferative potential of compounds propidium iodide fluorescence assay was performed using different cell lines. To calculate the total nuclear DNA, a fluorescent dye (propidium iodide, PI) is used which can attach to the DNA, thus offering a quick and precise technique. PI cannot pass through the cell membrane and its signal intensity can be considered as directly proportional to quantity of cellular DNA. Cells whose cell membranes are damaged or have changed permeability are counted as dead ones. The assay was performed by seeding the cells of different cell lines at a density of 3000-7500 cells/well (in 200µl medium) in culture plates followed by incubation for 24h at 37 °C in humidified 5% CO2/95% air atmospheric conditions. The medium was removed; the compounds were added to the plates at 10 µM concentrations (in 0.1% DMSO) in triplicates, followed by incubation for 48 h. DMSO (0.1%) was used as control. After incubation, medium was removed followed by the addition of PI (25 µl, 50µg/mL in water/medium) to each well of the plates. At -80 °C, the plates were allowed to freeze for 24 h, followed by thawing at 25 °C. A fluorometer (Polar-Star BMG Tech) was used to record the readings at excitation and emission wavelengths of 530 and 620 nm for each well. The percentage cytotoxicity of compounds was calculated using the following formula:
Where ATC= Absorbance of treated cells and AC= Absorbance of control. Erlotinib was used as positive control in the assay.

caspase-9 = test: Caspase-9 level assay; assay type: cell-based, human; conditions: for Caspase-9 Fold Change: vs control cells
Description: The impact of compounds 4a and 4b on caspase-8 and caspase-9 was also assessed to clarify how compounds 4a and 4b induce apoptosis by activating the intrinsic or extrinsic route.

Cytochrome C = Cytochrome C assay; assay type: cell-based, human; conditions: for Cytochrome C Conc: A-549; for Cytochrome C Fold Change: A-549, vs control
Description: The concentration of Cytochrome c in a cell is crucial for activating caspases and starting the intrinsic apoptosis process. […]
plate cover and incubate at room temperature, on a microplate shaker at 100 rpm if available, for 1 hour. Remove plate cover and empty the wells. Wash microwell strips 3 times as described in step 2.
Proceed to the next step. Pipette 100 μl of mixed TMB Substrate Solution to all wells, including the […]
available on a rotator set at 100 rpm. Avoid direct exposure to intense light. The point, at which the substrate reaction is stopped, is often determined by the ELISA reader. Many ELISA readers record absorbance only up to 2.0 O.D. Therefore, the color development within individual microwells must be watched by the person running the assay and the substrate reaction stopped before positive wells are no longer properly detectable. Stop the enzyme reaction by quickly pipetting 100 μL of Stop Solution into each well, including the blank wells. It is important that the Stop Solution is spread quickly and uniformly throughout the microwells to completely inactivate the enzyme. Results must be read immediately after the Stop Solution is added or within one hour if the microwell strips are stored at 2 - 8°C in the dark. Read absorbance of each microwell on a spectrophotometer using 450 nm as the primary wave length.
4.2.6. Cytochrome C assay […]
cytochrome C, and lysed with Cell Extraction Buffer. This lysate was diluted in Standard Diluent Buffer over the range of the assay and measured for cytochrome C content. (Cells are Plated in cells/well in a volume of 100µl complete growth medium + 100 µl of the tested compound + 50 µl of 1X biotin conjugated antibody+ 100 µl of 1X streptavidin-HRP+ 100 µL TMB substrate soln of per well in a 96-well plate for 24 hours before assay).
4.3. Statistical analysis
Computerized Prism 5 program was used to statistically analyzed data using one-way ANOVA test followed by Tukey’s as post ANOVA for multiple comparison at P ≤.05. Data were presented as […]

caspase-3 = test: Caspase-3 activation assay; conditions: for Caspase-3 Conc: A-549; for Caspase-3 Fold Change: A-549, vs control untreated cells
Description: record autophosphorylation level, EGFR kinase assay was carried out based on DELFIA/Time-
Resolved Fluorometry. The compounds were first dissolved in DMSO absolute, after dilution to
Each compound (10 µL) was incubated
with recombinant enzyme (10 µL, 5 ng for EGFR, 1:80 dilution in 100 mM HEPES) for 10 min at
25 °C, after the addition of 5X buffer (10 µL, containing 2 mM MnCl2, 100 µM Na3VO4, 20 mM HEPES and 1 mM DTT) and ATP-MgCl2 (20 µL, containing 0.1 mM ATP and 50 mM MgCl2) and
incubation for 1h. The negative and positive controls were included in each plate by the incubation
of enzyme either with or without ATP-MgCl2. The liquid was removed after incubation and the plates
were washed thrice using wash buffer. Europium-tagged antiphosphotyrosine antibody (75 µL, 400
ng) was added to each well followed by incubation of 1h and then washing of the plates using buffer.
The enhancement solution was added to each well and the signal was recorded at excitation and
The autophosphorylation percentage inhibition by compounds was calculated using the following equation:

IC50 [1] [µM] | IC50 [2] [µM] | IC50 [3] [µM] | GI50 [4] [µM] | fold more potent than 4c (GI50) ([4]; relative to 4c) [fold] | fold less potent than erlotinib (GI50) ([4]; relative to erlotinib) [fold] | SMILES | Caspase-9 Conc (caspase-9) [ng/mL] | Caspase-9 Fold Change (caspase-9) | Cytochrome C Conc (Cytochrome C) [ng/mL] | Cytochrome C Fold Change (Cytochrome C) | Caspase-3 Conc (caspase-3) [pg/mL] | Caspase-3 Fold Change (caspase-3)
0.031 ± 0.003 | 0.036 ± 0.003 | 0.033 ± 0.003 | 0.034 |  |  | O=c1cc(-n2cc(COc3cccc4cccc(OCc5cn(-c6cc(=O)[nH]c7ccccc67)nn5)c34)nn2)c2ccccc2[nH]1 [Compound 4a, 4,4′-(((naphthalene-1,8-diylbis(oxy))bis(methylene))bis(1H-1,2,3-triazole-4,1-diyl))-bis-(quinolin-2(1H)-one)] | 17.80 | 19 and 18.75 | 0.80 | 16 | 587.50 ± 4.50 | 9 and 8.95
0.041 ± 0.004 | 0.048 ± 0.004 | 0.043 ± 0.004 | 0.045 | 1.8 | 1.4 | Cc1ccc2[nH]c(=O)cc(-n3cc(COc4cccc5cccc(OCc6cn(-c7cc(=O)[nH]c8ccc(C)cc78)nn6)c45)nn3)c2c1 [Compound 4b, 4,4′-(((naphthalene-1,8-diylbis(oxy))bis(methylene))bis(1H-1,2,3-triazole-4,1-diyl))-bis(6-methylquinolin-2(1H)-one)] | 16.60 | 18 and 17.50 | 0.70 | 14 | 535.50 ± 4.50 | 8 and 8.15
